Data reported in patent publication US11021468B2, “TGF-ß inhibitors” (Rigel Pharmaceuticals, Inc., priority 2015, dated 2021).

What was measured:
[1] = test system: GDF8; experiment: AlphaScreen SureFire SMAD3 (p-Ser423/425) assay, GDF8-stimulated (GDF pSMAD (MPC11)); format: cell-based; settings: p-SMAD-3 (Ser423/425)
From the text: (§1) Example 2: AlphaScreen® SureFire® SMAD3 (p-Ser423/425) Assay
(§2) The p-SMAD-3 (Ser423/425) SureFire® assay has been designed to measure the phosphorylation of endogenous cellular p-SMAD-3 (Ser423/425) in cell lysates and is a system for the screening of both modulators of receptor activation (e.g. agonists and antagonists) as well as agents acting intracellularly, such as small molecule inhibitors of upstream events. The assay will measure p-SMAD-3 (Ser423/425) activation by either cloned or endogenous receptors, and can be applied to primary cells.
(§3) P-SMAD-3 (Ser423/425) SureFire® Assay Protocols
(§4) 96-well Assay Protocol for 293FT and RMS13 adherent cells can be carried out manually or in high throughput with liquid handling robots.
(§5) The cells (80 μL of cells for 96 well plates) were plated in collagen coated tissue culture plates in RPMI or FreeStyle medium (Invitrogen) and incubated overnight. For manual analysis, 6 plates for GDF8, 6 plates for TGFβ, and optionally 6 plates for Alk5ca(ALK5 constitutively active) were used.
(§6) The compound dilution plates were prepared as follows: 12 μL of DMSO was transferred into first column of 96-well plate, and 16 μL of DMSO was transferred into columns 2-12 of the 96-well plate. 12 μL of compound solution was transferred into first column of the DMSO-containing 96-well plate. Three-fold dilution was performed up to column 10 of the DMSO-containing 96-well plate.
(§7) The plate containing cells were treated with compounds for about 10 minutes, and then ligand was added. GDF8 or TGFb was added to plates to stimulate. 293FL cells were stimulated for 90 minutes at 37° C.; and RMS13 cells were stimulated for 60 minutes at 37° C. The medium was then removed from the cells, and 1× Lysis Buffer (about 25 μL) was added and the plate was gently agitated on plate shaker for 5-10 minutes.
(§8) The lysate (5 μL) was then placed into 384-well shallow plates avoiding the generation of bubbles. To this, the Reaction Buffer+Activation Buffer+AlphaScreen® Acceptor beads mixture (5 μL) was added. The plate was sealed with adhesive cover and shielded from light (e.g., with metal foil), and agitated gently on plate shaker for 2 hours at room temperature.
(§9) Dilution buffer+AlphaScreen® Donor beads (2 μL) was then added, and the plate was intubated on the plate shaker for an additional 1½ hours. After completion, the plate was read on Synergy-4 or Enspire plate reader, using AlphaScreen® pSMAD3® settings.
(§10) Representative results for inhibition of GDF8 (data=GDF pSMAD (MPC11) (μM)) and TGF-β (data=TGF-β pSMAD (MPC-11) (μM)) signaling are shown in Table 1: […]

[2] = test system: TGF-β; experiment: AlphaScreen SureFire SMAD3 (p-Ser423/425) assay, TGF-β-stimulated (TGF-β pSMAD (MPC-11)); format: cell-based; settings: p-SMAD-3 (Ser423/425)
From the text: as §1, §2, §3, §4, §5, §6, §7, §8, §9, §10

[3] = Mus musculus, MPC-11, inhibition of GDF8 signaling
[4] = Mus musculus, MPC-11, inhibition of TGF-β signaling

SMILES	IC50 [1, 3]	IC50 [2, 4]	IC50 ([1]; inhibition of GDF8 signaling)	IC50 ([2]; inhibition of TGF-β signaling)
Cc1ccc(C)c(-c2nccc(Nc3ccc4c(cnn4C(=O)CN(C)C)c3)n2)c1 [Compound 1, 2-(Dimethylamino)-1-(5-((2-(2,5-dimethylphenyl)pyrimidin-4-yl)amino)-1H-indazol-1-yl)ethan-1-one]	47.2 nM	560 nM		
Cc1cccc(-c2nc(Nc3cnc4[nH]ncc4c3)c3ccccc3n2)n1 [Compound 2, 2-(6-Methylpyridin-2-yl)-N-(1H-pyrazolo[3,4-b]pyridin-5-yl)quinazolin-4-amine]	144 nM	318 nM		
Fc1ccc(-c2nccc(Nc3cnc4[nH]ncc4c3)n2)cc1F [Compound 3, N-(2-(3,4-Difluorophenyl)pyrimidin-4-yl)-1H-pyrazolo[3,4-b]pyridin-5-amine]	382 nM	1530 nM		
Fc1ccc(-c2nccc(Nc3cnc4[nH]ncc4c3)n2)cc1 [Compound 4, N-(2-(4-Fluorophenyl)pyrimidin-4-yl)-1H-pyrazolo[3,4-b]pyridin-5-amine]	171 nM	840 nM		
Fc1ccc(-c2nc(Nc3ccc4[nH]ncc4c3)c3cc[nH]c3n2)cc1 [Compound 5, 2-(4-Fluorophenyl)-N-(1H-indazol-5-yl)-7H-pyrrolo[2,3-d]pyrimidin-4-amine]	66.1 nM	751 nM		
Fc1ccc(-c2nc(Nc3ccc4[nH]ncc4c3)c3cc[nH]c3n2)cc1F [Compound 6, 2-(3,4-Difluorophenyl)-N-(1H-indazol-5-yl)-7H-pyrrolo[2,3-d]pyrimidin-4-amine]	264 nM	1680 nM		
Fc1ccc(-c2nc(Nc3ccc4[nH]ncc4c3)c3cc[nH]c3n2)c(F)c1 [Compound 7, 2-(2,4-Difluorophenyl)-N-(1H-indazol-5-yl)-7H-pyrrolo[2,3-d]pyrimidin-4-amine]	119 nM	874 nM		
Cc1cc(-c2nc(Nc3ccc4[nH]ncc4c3)c3cc[nH]c3n2)ccc1F [Compound 8, 2-(4-Fluoro-3-methylphenyl)-N-(1H-indazol-5-yl)-7H-pyrrolo[2,3-d]pyrimidin-4-amine]	84.2 nM	747 nM		
Cc1cccc(-c2nc(Nc3ccc4[nH]ncc4c3)c3cc[nH]c3n2)c1 [Compound 9, N-(1H-Indazol-5-yl)-2-(3-methylphenyl)-7H-pyrrolo[2,3-d]pyrimidin-4-amine]	336 nM	1460 nM		
Fc1ccc(-c2nc(Nc3ccc4[nH]ncc4c3)c3[nH]ccc3n2)cc1 [Compound 10, 2-(4-Fluorophenyl)-N-(1H-indazol-5-yl)-5H-pyrrolo[3,2-d]pyrimidin-4-amine]	644 nM	5130 nM		
Cc1cccc(-c2nc(Nc3ccc4[nH]ncc4c3)c3[nH]ccc3n2)c1 [Compound 11, N-(1H-Indazol-5-yl)-2-(3-methylphenyl)-5H-pyrrolo[3,2-d]pyrimidin-4-amine]	917 nM	5330 nM		
Cc1cc(F)ccc1-c1ncc(F)c(Nc2cnc3[nH]ncc3c2)n1 [Compound 12, N-(5-Fluoro-2-(4-fluoro-2-methylphenyl)pyrimidin-4-yl)-1H-pyrazolo[3,4-b]pyridin-5-amine]	481 nM	1590 nM		
Cc1cnc(-c2cccc(F)c2)nc1Nc1cnc2[nH]ncc2c1 [Compound 13, N-(2-(3-Fluorophenyl)-5-methylpyrimidin-4-yl)-1H-pyrazolo[3,4-b]pyridin-5-amine]	883 nM	2720 nM		
Cc1cnc(-c2ccc(F)cc2)nc1Nc1cnc2[nH]ncc2c1 [Compound 14, N-(2-(4-Fluorophenyl)-5-methylpyrimidin-4-yl)-1H-pyrazolo[3,4-b]pyridin-5-amine]	306 nM	732 nM		
Cc1cnc(-c2ccc(F)c(F)c2)nc1Nc1cnc2[nH]ncc2c1 [Compound 15, N-(2-(3,4-Difluorophenyl)-5-methylpyrimidin-4-yl)-1H-pyrazolo[3,4-b]pyridin-5-amine]	685 nM	876 nM		
Cc1cccc(-c2ncc(C)c(Nc3cnc4[nH]ncc4c3)n2)c1 [Compound 16, N-(2-(3-Methylphenyl)-5-methylpyrimidin-4-yl)-1H-pyrazolo[3,4-b]pyridin-5-amine]	289 nM	410 nM		
Fc1ccccc1-c1nccc(Nc2ccc3[nH]ncc3c2)n1 [Compound 17, N-(2-(2-Fluorophenyl)pyrimidin-4-yl)-1H-indazol-5-amine]	220 nM	2170 nM		

SMILES	IC50 [1, 3]	IC50 [2, 4]	IC50 ([1]; inhibition of GDF8 signaling)	IC50 ([2]; inhibition of TGF-β signaling)
Fc1cccc(-c2nccc(Nc3ccc4[nH]ncc4c3)n2)c1 [Compound 18, N-(2-(3-Fluorophenyl)pyrimidin-4-yl)-1H-indazol-5-amine]	154 nM	1360 nM		
COc1cccc(-c2nccc(Nc3ccc4[nH]ncc4c3)n2)c1 [Compound 19, N-(2-(3-Methoxyphenyl)pyrimidin-4-yl)-1H-indazol-5-amine]	766 nM	4050 nM		
c1ccc(-c2nccc(Nc3ccc4[nH]ncc4c3)n2)cc1 [Compound 20, N-(2-Phenylpyrimidin-4-yl)-1H-indazol-5-amine]	358 nM	1740 nM		
Cc1ccccc1-c1nccc(Nc2ccc3[nH]ncc3c2)n1 [Compound 21, N-(2-(2-Methylphenyl)pyrimidin-4-yl)-1H-indazol-5-amine]	201 nM	1230 nM		
Fc1ccc(-c2nccc(Nc3ccc4[nH]ncc4c3)n2)cc1F [Compound 22, N-(2-(3,4-Difluorophenyl)pyrimidin-4-yl)-1H-indazol-5-amine]			32.1 nM	112 nM
Fc1cc2[nH]ncc2cc1Nc1ccnc(-c2ccccc2F)n1 [Compound 23, 6-Fluoro-N-(2-(2-fluorophenyl)pyrimidin-4-yl)-1H-indazol-5-amine]	257 nM	1320 nM		
Fc1ccccc1-c1ncc(F)c(Nc2ccc3[nH]ncc3c2)n1 [Compound 24, N-(5-Fluoro-2-(2-fluorophenyl)pyrimidin-4-yl)-1H-indazol-5-amine]	846 nM	3990 nM		
Fc1ccc(-c2nccc(Nc3ccc4[nH]ncc4c3)n2)cc1F [Compound 25, N-(2-(3,4-Difluorophenyl)pyrimidin-4-yl)-1H-indazol-5-amine]			91.1 nM	326 nM
Cc1ccc(F)cc1-c1nccc(Nc2ccc3[nH]ncc3c2)n1 [Compound 26, N-(2-(5-fluoro-2-methylphenyl)pyrimidin-4-yl)-1H-indazol-5-amine]	126 nM	1000 nM		
Fc1cc(F)cc(-c2nccc(Nc3ccc4[nH]ncc4c3)n2)c1 [Compound 27, N-(2-(3,5-Difluorophenyl)pyrimidin-4-yl)-1H-indazol-5-amine]	287 nM	2200 nM		
COc1ccc(-c2nccc(Nc3ccc4[nH]ncc4c3)n2)cc1F [Compound 28, N-(2-(3-Fluoro-4-methoxyphenyl)pyrimidin-4-yl)-1H-indazol-5-amine]	363 nM	2140 nM		
N#Cc1cccc(-c2nccc(Nc3ccc4[nH]ncc4c3)n2)c1 [Compound 29, N-(2-(3-Cyanophenyl)pyrimidin-4-yl)-1H-indazol-5-amine]	21.5 nM	85.3 nM		
Cc1ccc(C)c(-c2nccc(Nc3ccc4[nH]ncc4c3)n2)c1 [Compound 30, N-(2-(2,5-Dimethylphenyl)pyrimidin-4-yl)-1H-indazol-5-amine]	193 nM	842 nM		
Nc1cccc(-c2nccc(Nc3ccc4[nH]ncc4c3)n2)c1 [Compound 31, N-(2-(3-Aminophenyl)pyrimidin-4-yl)-1H-indazol-5-amine]	463 nM	2710 nM		
Cc1cccc(-c2nccc(Nc3ccc4[nH]ncc4c3)n2)c1 [Compound 32, N-(2-(3-Methylphenyl)pyrimidin-4-yl)-1H-indazol-5-amine]	116 nM	553 nM		
Fc1ccc(-c2nccc(Nc3ccc4[nH]ncc4c3)n2)cc1 [Compound 33, N-(2-(4-Fluorophenyl)pyrimidin-4-yl)-1H-indazol-5-amine]	25.1 nM	203 nM		
Cc1ccccc1-c1ncc(F)c(Nc2ccc3[nH]ncc3c2)n1 [Compound 34, N-(5-Fluoro-2-(methylphenyl)pyrimidin-4-yl)-1H-indazol-5-amine]	427 nM	2340 nM		
